Each structure is given as a SMILES string. A value given as a limit tells only on which side of the number the result lay.

This assay deals with HCV replicon. The experiment in a line: HCV replicon replication assay (NPTII ELISA). The format is cell-based, Hepatitis C virus (Huh-7 cells). The following applies: Hepatitis C virus, Huh-7, 72 h, inhibition of HCV replicon replication in Huh-7 HCV replicon-containing cells, three days incubation, NPT level by ELISA; read-out: EC50. The protocol:
Compounds claimed herein are tested for the ability to inhibit viral replication of the Hepatitis C replicon in cultured cells in which the HCV replicon construct has been incorporated. The HCV replicon system was described by Bartenschlager, et. al (Science, 285, pp. 110-113 (1999)). The replicon system is predictive of in vivo anti-HCV activity; compounds that are active in humans uniformly evidence activity in the replicon assay.
In this assay HCV replicon containing cells are treated with different concentrations of the test compound to ascertain the ability of the test compound to suppress replication of the HCV replicon. As a positive control, HCV replicon-containing cells are treated with different concentrations of interferon alpha, a known inhibitor of HCV replication. The replicon assay system includes Neomycin Phosphotransferase (NPT) as a component of the replicon itself in order to detect the transcription of replicon gene products in the host cell. Cells in which the HCV replicon is actively replicating have high levels of NPT; the level of NPT is proportional to HCV replication. […] The NPT level of each sample is measured using a captured ELISA.
The HCV replicon contains, 5′-3′, the HCV-IRES, the neomycin phosphotransferase (neo) gene, the IRES of encephalomyocarditis virus, which directs translation of HCV sequences NS3 to NS5B, and the 3′-NTR. The sequence of the HCV replicon has been deposited in GenBank (Accession no. AJ242652).
The replicon is transfected into Huh-7 cells using standard methods such as electroporation.
The cells are then seeded onto 96-well plates at a density of 6000-7500 cells/100 microliters/well (6-7.5×10^5 cells/10 ml/plate). The plates are then incubated at 37° C. in a 5% CO2 incubator.
HCV replicon-containing cells are rinsed with once PBS once; 2 mls of trypsin are then added. Cells are incubated at 37° C. in a 5% CO2 incubator for 3-5 minutes. 10 mls of complete medium is added to stop the reaction. Cells are blown gently, put into a 15 ml tube, and spun at 1200 rpm for four minutes. The trypsin/medium solution is removed and 5 mls of medium (500 ml DMEM (high glucose)) from BRL catalog #12430-054; 50 mls 10% FBS, 5% Geneticin G418 (50 mg/ml, BRL catalog #10131-035), 5 ml MEM non-essential amino acids (100× BRL #11140-050) and 5 ml pen-strep (BRL #15140-148) is added. The cells and media are mixed carefully
Cells are plated with screening medium (500 ml DMEM (BRL #21063-029), 50 ml FBS (BRL #10082-147) and 5 ml MEM non-essential amino acid (BRL #11140-050) at 6000-7500 cells/100 μl/well of 96 well plate (6-7.5×10^5 cells/10 ml/plate). Plates are placed into 37° C. 5% CO2 incubator overnight.
The following morning, drugs (test compounds or interferon alpha) are diluted in 96 well U bottom plates with media or DMSO/media, depending on the final concentration chosen for screening. Generally for 6 concentrations of each test compounds ranging from 10 micromolar to 0.03 micromolar are applied. 100 μl of the test compound dilution is placed in wells of the 96 well plate containing the HCV replicon cells. Media without drug is added to some wells as a negative controls. DMSO is known to affect cell growth. Therefore, if drugs diluted in DMSO are used, all wells, including negative control (media only) and positive control (interferon alpha) wells, must contain the same concentration of DMSO, for single dose screening. The plates are incubated at 37° C. in a humidified 5% CO2 environment for three days.
On day four, the NTPII assay is quantitated. The medium is poured from the plates and the plates are washed once in 200 μl of PBS. The PBS is then decanted and the plates tapped in a paper towel to remove any remaining PBS. Cells are fixed in situ with 100 μl/well of pre-cooled (−20° C.) methanol:acetone (1:1) and the plates are placed at −20° C. for 30 minutes.
The fixing solution is poured from the plates and the plates allowed to air-dry completely (approximately one hour). […]

For `CCCCCOc1ccc(N(C(C)=O)c2nc(-c3ccc(F)cc3)cs2)cc1C(F)(F)F` [Compound 1, N-(4-(4-fluorophenyl)thiazol-2-yl)-N-(4-(pentyloxy)-3-(trifluoromethyl)phenyl)acetamide], the EC50 (commonly the concentration at which the effect is half-maximal) was below 1000 nM.
In the case of `CCCCCOc1ccc(N(C)c2nc(-c3cccnc3)cs2)cc1C(F)(F)F` [Compound 2, N-methyl-N-(4-(pentyloxy)-3-(trifluoromethyl)phenyl)-4-(pyridin-3-yl)thiazol-2-amine] it was below 1000 nM.
In the case of `CCCCCOc1ccc(N(C)c2nc(C(=O)O)cs2)cc1C(F)(F)F` [Compound 3, 2-(methyl(4-(pentyloxy)-3-(trifluoromethyl)phenyl)amino)thiazole-4-carboxylic acid] it was above 10000 nM; in that of `CCCCCOc1ccc(N(C)c2nc(C(=O)Nc3ccc(Cl)cc3)cs2)cc1C(F)(F)F` [Compound 4, N-(4-chlorophenyl)-2-(methyl(4-(pentyloxy)-3-(trifluoromethyl)phenyl)amino)thiazole-4-carboxamide], 1000 to 10000 nM.
On to `CCCCCOc1ccc(N(C)c2nc(C(=O)Nc3ccc(C#N)cc3)cs2)cc1C(F)(F)F` [Compound 5, N-(4-cyanophenyl)-2-(methyl(4-(pentyloxy)-3-(trifluoromethyl)phenyl)amino)thiazole-4-carboxamide], for which the concentration giving a half-maximal response (EC50) is above 10000 nM.
Next, `CCCCCOc1ccc(N(C)c2nc(C(=O)Nc3cccnc3)cs2)cc1C(F)(F)F` [Compound 6, 2-(methyl(4-(pentyloxy)-3-(trifluoromethyl)phenyl)amino)-N-(pyridin-3-yl)thiazole-4-carboxamide]: 1000 to 10000 nM; `CCCCCOc1ccc(N(C(C)=O)c2nc(C(=O)Nc3cccnc3)cs2)cc1C(F)(F)F` [Compound 7, 2-(N-(4-(pentyloxy)-3-(trifluoromethyl)phenyl)acetamido)-N-(pyridin-3-yl)thiazole-4-carboxamide]: 1000 to 10000 nM; `CCCCCOc1ccc(N(C)c2nc(-c3ccc(CN4CCOCC4)nc3)cs2)cc1C(F)(F)F` [Compound 8, N-methyl-4-(6-(morpholinomethyl)pyridin-3-yl)-N-(4-(pentyloxy)-3-(trifluoromethyl)phenyl)thiazol-2-amine]: 1000 to 10000 nM.
Next, `CCCCCOc1ccc(N(CC(=O)N(CC)CC)c2nc(-c3cccnc3)cs2)cc1C(F)(F)F` [Compound 9, N,N-diethyl-2-((4-(pentyloxy)-3-(trifluoromethyl)phenyl)(4-(pyridin-3-yl)thiazol-2-yl)amino)acetamide]: above 10000 nM; `CCCCCOc1ccc(N(C)c2nc(-c3ccc(CN4CCN(C)CC4)nc3)cs2)cc1C(F)(F)F` [Compound 10, N-methyl-4-(6-((4-methylpiperazin-1-yl)methyl)pyridin-3-yl)-N-(4-(pentyloxy)-3-(trifluoromethyl)phenyl)thiazol-2-amine]: below 1000 nM.
In the case of `CCCCCOc1ccc(N(CCN(C)C)c2nc(-c3cccnc3)cs2)cc1C(F)(F)F` [Compound 11, N1,N1-dimethyl-N2-(4-(pentyloxy)-3-(trifluoromethyl)phenyl)-N2-(4-(pyridin-3-yl)thiazol-2-yl)ethane-1,2-diamine] it was 1000 to 10000 nM.
Regarding `CCCCCOc1ccc(N(C(C)=O)c2nc(-c3cccnc3)cs2)cc1C(F)(F)F` [Compound 12, N-(4-(pentyloxy)-3-(trifluoromethyl)phenyl)-N-(4-(pyridin-3-yl)thiazol-2-yl)acetamide], the EC50 was below 1000 nM.
Next, `CCCCCOc1ccc(N(C(=O)C2CC2)c2nc(-c3ccc(C(=O)N(C)C)cn3)cs2)cc1C(F)(F)F` [Compound 13, N,N-dimethyl-6-(2-(N-(4-(pentyloxy)-3-(trifluoromethyl)phenyl)cyclopropane-carboxamido)thiazol-4-yl)nicotinamide]: above 10000 nM; `CCCCCOc1ccc(N(C(=O)C(C)C)c2nc(-c3cccnc3)cs2)cc1C(F)(F)F` [Compound 14, N-(4-(pentyloxy)-3-(trifluoromethyl)phenyl)-N-(4-(pyridin-3-yl)thiazol-2-yl)isobutyramide]: below 1000 nM.
In the case of `CCCCCOc1ccc(N(C(=O)C2CC2)c2nc(-c3cccnc3)cs2)cc1C(F)(F)F` [Compound 15, N-(4-(pentyloxy)-3-(trifluoromethyl)phenyl)-N-(4-(pyridin-3-yl)thiazol-2-yl)cyclopropanecarboxamide] it was below 1000 nM; in that of `CCCCCOc1ccc(N(C(C)=O)c2nc(-c3ccc(CN(C)C)nc3)cs2)cc1C(F)(F)F` [Compound 16, N-(4-(6-((dimethylamino)methyl)pyridin-3-yl)thiazol-2-yl)-N-(4-(pentyloxy)-3-(trifluoromethyl)phenyl)acetamide], 1000 to 10000 nM.
For `CCCCCOc1ccc(N(C(=O)C2CC2)c2nc(-c3ccc(CN(C)C)nc3)cs2)cc1C(F)(F)F` [Compound 17, N-(4-(6-((dimethylamino)methyl)pyridin-3-yl)thiazol-2-yl)-N-(4-(pentyloxy)-3-(trifluoromethyl)phenyl)cyclopropane-carboxamide], the EC50 fell in the range of 1000 to 10000 nM.
Next, `CCCCCOc1ccc(N(C(=O)C(C)C)c2nc(-c3ccc(CN(C)C)nc3)cs2)cc1C(F)(F)F` [Compound 19, N-(4-(6-((dimethylamino)methyl)pyridin-3-yl)thiazol-2-yl)-N-(4-(pentyloxy)-3-(trifluoromethyl)phenyl)isobutyramide]: 1000 to 10000 nM; `CCCCCOc1ccc(N(C(C)=O)c2nc(CN(C)C)cs2)cc1C(F)(F)F` [Compound 20, N-(4-((dimethylamino)methyl)thiazol-2-yl)-N-(4-(pentyloxy)-3-(trifluoromethyl)phenyl)acetamide]: 1000 to 10000 nM.
Next, `CCCCCOc1ccc(N(C(=O)C(C)C)c2nc(CN(C)C)cs2)cc1C(F)(F)F` [Compound 21, N-(4-((dimethylamino)methyl)thiazol-2-yl)-N-(4-(pentyloxy)-3-(trifluoromethyl)phenyl)isobutyramide]: 1000 to 10000 nM.
Next, `CCCCCOc1ccc(N(C(=O)C2CC2)c2nc(CN(C)C)cs2)cc1C(F)(F)F` [Compound 22, N-(4-((dimethylamino)methyl)thiazol-2-yl)-N-(4-(pentyloxy)-3-(trifluoromethyl)phenyl)cyclopropane-carboxamide]: 1000 to 10000 nM.
Take `CCCCCOc1ccc(N(C(=O)C(=O)OC)c2nc(CN(C)C)cs2)cc1C(F)(F)F` [Compound 23, methyl 2-((4-((dimethylamino)methyl)thiazol-2-yl)(4-(pentyloxy)-3-(trifluoromethyl)phenyl)amino)-2-oxoacetate]: the EC50 is 1000 to 10000 nM.
Next, `CCCCCOc1ccc(N(C(C)=O)c2nc(-c3cccnc3)cs2)cc1F` [Compound 24, N-(3-fluoro-4-(pentyloxy)phenyl)-N-(4-(pyridin-3-yl)thiazol-2-yl)acetamide]: below 1000 nM; `CCCCCOc1ccc(N(C(=O)C(C)C)c2nc(-c3cccnc3)cs2)cc1F` [Compound 25, N-(3-fluoro-4-(pentyloxy)phenyl)-N-(4-(pyridin-3-yl)thiazol-2-yl)isobutyramide]: below 1000 nM; `CCCCCOc1ccc(N(C(=O)C2CC2)c2nc(-c3cccnc3)cs2)cc1F` [Compound 26, N-(3-fluoro-4-(pentyloxy)phenyl)-N-(4-(pyridin-3-yl)thiazol-2-yl)cyclopropanecarboxamide]: below 1000 nM.

These data come from patent publication US20070213301A1 (ACHILLION PHARMACEUTICALS, INC., priority 2006, published 2007).
